Article PMC8372549 (Toxicology and applied pharmacology, 2021)

Tests used:
Type in all cases: biochemical
[1] = target: T1, cytochrome P450 1A1 (Homo sapiens, UniProt P04798); assay: fluorometric O-deethylation by recombinant CYP1A1 bactosomes; details: cited from earlier work
T1 sequence (P04798 1-512): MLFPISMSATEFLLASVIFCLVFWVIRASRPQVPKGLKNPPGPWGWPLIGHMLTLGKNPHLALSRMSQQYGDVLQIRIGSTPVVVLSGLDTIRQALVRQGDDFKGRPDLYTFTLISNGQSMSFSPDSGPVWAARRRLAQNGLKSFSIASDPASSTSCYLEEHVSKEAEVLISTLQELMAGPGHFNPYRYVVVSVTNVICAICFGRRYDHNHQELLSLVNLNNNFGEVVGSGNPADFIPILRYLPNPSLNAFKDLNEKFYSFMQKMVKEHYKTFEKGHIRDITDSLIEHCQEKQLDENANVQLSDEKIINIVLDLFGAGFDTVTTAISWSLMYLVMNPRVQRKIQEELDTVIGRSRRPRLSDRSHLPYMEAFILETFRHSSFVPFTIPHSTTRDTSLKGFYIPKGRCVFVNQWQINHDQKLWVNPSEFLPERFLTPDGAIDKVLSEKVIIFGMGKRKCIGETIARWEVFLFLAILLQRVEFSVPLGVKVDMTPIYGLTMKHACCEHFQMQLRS

[2] = target: T2, CYP1B1 (Homo sapiens, UniProt Q16678); assay: fluorometric 7-ethoxyresorufin O-deethylation with recombinant CYP1B1 bactosomes
T2 sequence (Q16678 1-543): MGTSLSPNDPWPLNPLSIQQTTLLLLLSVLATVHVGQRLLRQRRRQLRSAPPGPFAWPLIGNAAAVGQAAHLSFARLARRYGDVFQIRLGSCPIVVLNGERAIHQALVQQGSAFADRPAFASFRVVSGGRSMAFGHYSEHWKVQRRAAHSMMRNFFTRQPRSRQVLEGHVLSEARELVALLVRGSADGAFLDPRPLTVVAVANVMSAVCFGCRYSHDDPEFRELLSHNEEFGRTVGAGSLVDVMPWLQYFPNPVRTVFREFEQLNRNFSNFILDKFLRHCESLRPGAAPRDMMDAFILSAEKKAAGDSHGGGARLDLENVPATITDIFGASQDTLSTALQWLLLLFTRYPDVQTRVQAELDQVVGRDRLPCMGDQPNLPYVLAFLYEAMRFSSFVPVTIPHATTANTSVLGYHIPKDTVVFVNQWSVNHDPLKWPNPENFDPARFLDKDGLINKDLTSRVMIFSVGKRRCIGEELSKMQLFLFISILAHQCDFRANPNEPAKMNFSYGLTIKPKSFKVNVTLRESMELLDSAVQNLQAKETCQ

[3] = target: T1, cytochrome P450 1A1; assay: fluorometric CEC O-deethylation with recombinant CYP1A1 bactosomes

| IC50 [2] [µM] | Ki [3] [µM] | Compound | Km [1] [µM] |
| --- | --- | --- | --- |
|  |  | CCOc1ccc2cc(C#N)c(=O)oc2c1 [CEC, 3-cyano-7-ethoxycoumarin] | 0.5 |
| 1.7 ± 0.3 | 4.55 ± 0.37 | c1ccc(CSSSCc2ccccc2)cc1 [DTS, dibenzyl trisulfide] |  |
